Results as given in US7825231B2 (priority 2005, dated 2010).
“Also recorded” adds a separate entry of the source.

Columns and labels:
Format in all cases: in vivo, rat
male Sprague-Dawley rats [1] = assay: CFA model of inflammatory pain: thermal hyperalgesia (Hargreaves apparatus); conditions: three days after CFA injury
Method: (§1) Mechanical allodynia induced by SNL was determined by assessing the response of paw withdrawal to von Frey hairs of graded tensile strength as described previously with a tactile stimulus producing a 50% likelihood of withdrawal determined using the up-down method(53, 71, 72). Thermal hyperalgesia was determined using a Hargreaves apparatus recording the time to withdrawal from a radiant thermal stimulus positioned directly under the hind paw(73). Parametric statistics, using the general linear model for repeated measures were used to identify significant effects of treatment condition on the behavioral measure of neuropathic pain. The results were examined for a main effect of treatment group. All statistical analyses were performed using the software package, SPSS 13.0 for Windows (SPSS Inc., Chicago, Ill.).
(§2) Inflammatory injury was induced by injection of 150 μL CFA in the left-hind paw of male Sprague-Dawley rats.
Thermal hyperalgesia was tested using a Hargreaves apparatus as in Example 2.

male Sprague-Dawley rats [2] = assay: CFA model of inflammatory pain: weight bearing (incapacitance analgesia meter); conditions: three days after CFA injury
Method: as §2
Weight-bearing ability in the CFA model was measured using an incapacitance analgesia meter. […] The effect of vEM2 was reversed by intrathecal (FIG. 7B) or intraperitoneal (FIG. 7C) administration of Nal-M.

male Sprague-Dawley rats [3] = assay: CFA model of inflammatory pain: mechanical allodynia (von Frey hairs); conditions: three days after CFA injury
Method: as §1, §2
Mechanical allodynia was tested using von Frey hair stimulation as described in Example 2. […] The antiallodynic effect of vEM2 was reversed by intrathecal (FIG. 5B) or intraperitoneal (FIG. 5C) administration of Nal-M.

rats with SNL [4] = assay: Spinal nerve ligation model of neuropathic pain: thermal hyperalgesia (Hargreaves apparatus); conditions: intrathecal
Text: (§3) The spinal nerve ligation model was utilized to produce mechanical allodynia and thermal hyperalgesia, hallmarks of neuropathic pain(41).
(§4) Male Sprague-Dawley rats weighing 225 to 250 g underwent selective L5 SNL with the approval of the University Committee on Use and Care of Animals(53). Under isoflurane anesthesia, an incision was made in the atlanto-occipital membrane, a polyethylene (PE-10) catheter, filled with 0.9% saline, was advanced 8.5 cm caudally to position its tip at the level of the lumbar enlargement. The rostral tip of the catheter was passed subcutaneously, externalized on top of the skull, and sealed with a stainless-steel plug. One week after implantation of the intrathecal catheter, L5 spinal nerve ligation (SNL) was performed. […]
(§5) Mechanical allodynia induced by SNL was determined by assessing the response of paw withdrawal to von Frey hairs of graded tensile strength as described previously with a tactile stimulus producing a 50% likelihood of withdrawal determined using the up-down method(53, 71, 72). Thermal hyperalgesia was determined using a Hargreaves apparatus recording the time to withdrawal from a radiant thermal stimulus positioned directly under the hind paw(73). […]

rats with SNL [5] = assay: Spinal nerve ligation model of neuropathic pain: mechanical allodynia (von Frey hairs); conditions: intrathecal
Text: as §3, §4, §5

[6] = 10 days after vEM2 in rats with SNL

Compound	effect on the anti-hyperalgesic effect of vEM2 (thermal latency) (male Sprague-Dawley rats [1]; intraperitoneal)	effect on the anti-hyperalgesic effect of vEM2 (thermal latency) (male Sprague-Dawley rats [1]; intrathecal)	effect on the effect of vEM2 (weight bearing differential) (male Sprague-Dawley rats [2]; intraperitoneal)	effect on the effect of vEM2 (weight bearing differential) (male Sprague-Dawley rats [2]; intrathecal)	effect on the antiallodynic effect of vEM2 (mechanical threshold) (male Sprague-Dawley rats [3]; intraperitoneal)	effect on the antiallodynic effect of vEM2 (mechanical threshold) (male Sprague-Dawley rats [3]; intrathecal)	effect on the antihyperalgesic effect produced by vEM2 (rats with SNL [4]; [6])	effect on thermal latency, given alone (rats with SNL [4]; normal animals, data not shown)	effect on the antiallodynic effect produced by vEM2 (rats with SNL [5]; [6])	effect on mechanical threshold, given alone (rats with SNL [5]; normal animals, data not shown)
C=CC[N+]1(C)CC[C@]23c4c5ccc(O)c4O[C@H]2C(=O)CC[C@@]3(O)[C@H]1C5 (stereo partly shown) [Nal-M, naloxone-methiodide]	reversed	not significantly affected; also recorded: did not significantly counteract	reversed	reversed	reversed	reversed	–	–	–	–
CTOP	–	–	–	–	–	–	reversed	did not affect	reversed	did not affect
